This note sets out measurements from USRE37886E1, “1-(1,2-Disubstituted piperidinyl)-4-substituted piperazine derivatives” (Janssen Pharmaceuticals, N.V., priority 1995, dated 2002).

Data set [1] has as its system substance-P induced relaxation of the pig coronary arteries. Put plainly: Antagonism of substance-P induced relaxation of the pig coronary arteries. It is filed as cell-based. Particulars: concentration at which 50% of the response to 10^−9 M substance P was inhibited, 30 minutes incubation, prostaglandin F2a precontracted segments. The essentials:
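Inverted pig coronary artery segments (endothelium outside) in Krebs-Henseleit, 37 °C, O2/CO2 95/5, precontracted with prostaglandin F2a (10^−5 M); substance P 3×10^−10 and 10^−9 M added cumulatively. Compound incubated 30 min before repeat challenge; IC50 is concentration inhibiting 50% of the relaxation to 10^−9 M substance P.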

The subject of data set [2] is substance P induced plasma extravasation. Kind of data set: Antagonism of substance P induced plasma extravasation in guinea-pigs. It is filed as in vivo. Particulars: lowest active dose, female guinea-pigs; for LAD nose: compound 1 hour prior to substance P (2 mg/kg, femoral artery), blue colouring of nose 10 minutes after challenge; for LAD conjunctiva / LAD forepaws / LAD trachea / LAD urinary bladder: compound 1 hour prior to substance P; for LAD conjunctiva: blue colouring of conjunctiva 10 minutes after challenge; for LAD forepaws: blue colouring of forepaws 10 minutes after challenge; for LAD trachea: blue colouring of trachea 30 minutes after challenge; for LAD urinary bladder: blue colouring of urinary bladder 30 minutes after challenge. A digest of the protocol: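 Female guinea-pigs dosed with compound 1 hour before femoral-artery substance P (2 mg/kg) plus Evans Blue (30 mg/kg). Blue colouring of nose, forepaws and conjunctiva scored at 10 minutes, trachea and bladder at 30 minutes; value is lowest active dose (mg/kg).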

On to `Cc1cc(C)cc(OC(=O)C(c2ccccc2)N2CCN([C@H]3CCN(C(=O)c4cc(C(F)(F)F)cc(C(F)(F)F)c4)[C@@H](Cc4ccccc4)C3)CC2)c1` (mixture of isomers) [Compound 43, (±)-3,5-dimethylphenyl cis-4-[1-[3,5-bis(trifluoromethyl)benzoyl]-2-(phenylmethyl)-4-piperidinyl]-α-phenyl-1-piperazineacetate], for which the melting point came out at 88.1 °C. This compound gave an IC50 in data set [1] (Sus scrofa, 0.5 h) of 5.63 nM.
Compound `O=C(c1cc(C(F)(F)F)cc(C(F)(F)F)c1)N1CC[C@H](N2CCN(Cc3ccccc3)CC2)C[C@@H]1Cc1ccccc1` (racemic) [Compound 16, (±)-cis-1-[3,5-bis(trifluoromethyl)benzoyl]-2-(phenylmethyl)-4-[4-(phenylmethyl)-1-piperazinyl]piperidine] returned a melting point of 143.8 °C. For the same compound, in data set [2], the LAD nose was 40.0 mg/kg, the LAD conjunctiva is listed as 40.0 mg/kg, the LAD forepaws is on record as 40.0 mg/kg and the LAD trachea was above 40 mg/kg. In data set [2], this compound displayed an LAD urinary bladder above 40 mg/kg.
`O=C(c1cc(C(F)(F)F)cc(C(F)(F)F)c1)N1CC[C@@H](N2CCN(Cc3ccccc3)CC2)C[C@@H]1Cc1ccccc1` (racemic) [Compound 17, (±)-trans-1-[3,5-bis(trifluoromethyl)benzoyl]-2-(phenylmethyl)-4-[4-(phenylmethyl)-1-piperazinyl]piperidine (E)-2-butenedioate(1:2)] displayed a melting point of 240.3 °C. In data set [1] (Sus scrofa, 0.5 h), this compound displayed an IC50 of 1.68 nM. In data set [2], this compound had an LAD nose of 10.0 mg/kg, an LAD conjunctiva of 10.0 mg/kg, an LAD forepaws of 10.0 mg/kg and an LAD trachea above 40 mg/kg. Moreover, in data set [2], the LAD urinary bladder is listed as 10.0 mg/kg.
The compound `O=C(CN1CCN(C2CCN(C(=O)c3cc(C(F)(F)F)cc(C(F)(F)F)c3)C(Cc3ccccc3)C2)CC1)NC(c1ccccc1)c1ccccc1` (stereo not drawn) [Compound 33] registered an IC50 in data set [1] of 0.6 nM. In data set [2], the LAD nose is recorded as 2.50 mg/kg, the LAD conjunctiva was 2.50 mg/kg, the LAD forepaws turned out to be 10.0 mg/kg and the LAD trachea is above 40 mg/kg. Moreover, the LAD urinary bladder in data set [2] is recorded as above 40 mg/kg.
The compound `Cc1cccc(C)c1NC(=O)CN1CCN(C2CCN(C(=O)c3cc(C(F)(F)F)cc(C(F)(F)F)c3)C(Cc3ccc(Cl)c(Cl)c3)C2)CC1` (racemic) [Compound 138] gave an IC50 in data set [1] of 0.16 nM. In data set [2], the LAD nose is on record as 2.50 mg/kg, the LAD conjunctiva turned out to be 2.50 mg/kg, the LAD forepaws is 2.50 mg/kg and the LAD trachea was 10.0 mg/kg. Also, the LAD urinary bladder in data set [2] is given as above 40 mg/kg.
Compound `O=C(C(c1ccccc1)N1CCN(C2CCN(C(=O)c3cc(C(F)(F)F)cc(C(F)(F)F)c3)C(Cc3ccccc3)C2)CC1)N1CCCC1` (mixture of isomers) [Compound 52] yielded an IC50 in data set [1] of 1.1 nM. Moreover, in data set [2], the LAD nose was 0.63 mg/kg, the LAD conjunctiva was 2.50 mg/kg, the LAD forepaws is 0.63 mg/kg and the LAD trachea is reported as 10.0 mg/kg. Moreover, the LAD urinary bladder in data set [2] is 10.0 mg/kg.
`O=C(CN1CCN(C2CCN(C(=O)c3cc(C(F)(F)F)cc(C(F)(F)F)c3)C(Cc3ccccc3)C2)CC1)N1CCc2ccccc21` (racemic) [Compound 107] gave an IC50 in data set [1] of 0.96 nM. In data set [2], this compound came in with an LAD nose of 2.50 mg/kg, an LAD conjunctiva of 2.50 mg/kg, an LAD forepaws of 2.50 mg/kg and an LAD trachea of 2.50 mg/kg. The compound further gave an LAD urinary bladder in data set [2] of 10.0 mg/kg.
As to `Cc1ncc(CN2CCN(C3CCN(C(=O)c4cc(C(F)(F)F)cc(C(F)(F)F)c4)C(Cc4ccccc4)C3)CC2)o1` (racemic) [Compound 119], 2.81 nM corresponded to half-maximal inhibition in data set [1] (IC50). In data set [2], this compound registered an LAD nose of 2.50 mg/kg, an LAD conjunctiva of 2.50 mg/kg, an LAD forepaws of 2.50 mg/kg and an LAD trachea of 10.0 mg/kg. In data set [2], this compound had an LAD urinary bladder above 40 mg/kg.
In the case of “(−)-(A)-trans-4-[1-[3,5-bis(trifluoromethyl) benzoyl]-2-(phenylmethyl)-4-piperidinyl]-N-(2,6-dimethylphenyl)-1-piperazine acetamide [Compound 26]”, the IC50 in data set [1] came out at 2.75 nM. In data set [2], this compound had an LAD nose of 10.0 mg/kg, an LAD conjunctiva of 20.0 mg/kg, an LAD forepaws of 10.0 mg/kg and an LAD trachea of 40.0 mg/kg. The same compound yielded an LAD urinary bladder in data set [2] of 20.0 mg/kg.
In turn, `Cc1ncc(Cn2c(N3CCCN(C4CCN(C(=O)c5cc(C(F)(F)F)cc(C(F)(F)F)c5)C(Cc5ccccc5)C4)CC3)nc3ccccc32)o1` (stereo not drawn) [Compound 34] had an IC50 in data set [1] of 0.35 nM. Moreover, in data set [2], the LAD nose stood at 2.50 mg/kg, the LAD conjunctiva is 2.50 mg/kg, the LAD forepaws is 10.0 mg/kg and the LAD trachea came out at 10.0 mg/kg. Moreover, in data set [2], the LAD urinary bladder amounted to 10.0 mg/kg.
Turning to `CCOCCn1c(N2CCN(C3CCN(C(=O)c4cc(C(F)(F)F)cc(C(F)(F)F)c4)C(Cc4ccccc4)C3)CC2)nc2ccccc21` (stereo not drawn) [Compound 22], the midpoint of inhibition in data set [1], the IC50, lay at 0.37 nM. For the same compound, in data set [2], the LAD nose was 2.50 mg/kg, the LAD conjunctiva is given as 2.50 mg/kg, the LAD forepaws stood at 2.50 mg/kg and the LAD trachea was found to be 10.0 mg/kg. Further, in data set [2], the LAD urinary bladder is given as above 40 mg/kg.
`Cc1cccc(C)c1NC(=O)CN1CCN(C2CCN(C(=O)c3cc(C(F)(F)F)cc(C(F)(F)F)c3)C(Cc3ccc(F)c(F)c3)C2)CC1` (racemic) [Compound 134] registered an IC50 in data set [1] of 0.04 nM. In addition, in data set [2], the LAD nose amounted to 10.0 mg/kg, the LAD conjunctiva is reported as 10.0 mg/kg, the LAD forepaws is listed as 10.0 mg/kg and the LAD trachea is on record as 10.0 mg/kg. Besides, the LAD urinary bladder in data set [2] came to 10.0 mg/kg.
`O=C(CN1CCN(C2CCN(C(=O)c3cc(C(F)(F)F)cc(C(F)(F)F)c3)C(Cc3ccccc3)C2)CC1)Nc1c(Cl)cccc1Cl` (racemic) [Compound 45] returned an IC50 in data set [1] of 0.15 nM. In data set [2], the LAD nose came out at 0.63 mg/kg, the LAD conjunctiva is recorded as 0.63 mg/kg, the LAD forepaws stood at 0.63 mg/kg and the LAD trachea is recorded as above 40 mg/kg. Moreover, the LAD urinary bladder in data set [2] amounted to 2.50 mg/kg.
Turning to `Cc1cccc(C)c1NC(=O)CN1CCN([C@@H]2CCN(C(=O)c3cc(C(F)(F)F)cc(C(F)(F)F)c3)[C@@H](Cc3cc(F)cc(F)c3)C2)CC1` (racemic) [Compound 133, (±)-trans-4-[1-[3,5-bis(trifluoromethyl)benzoyl]-2-[(3,5-difluorophenyl)methyl]-4-piperdinyl]-N-(2,6-dimethylphenyl)-1-piperazineacetamide], the midpoint of inhibition in data set [1], the IC50, lay at 0.62 nM. In data set [2], this compound displayed an LAD nose of 2.50 mg/kg, an LAD conjunctiva of 2.50 mg/kg, an LAD forepaws of 2.50 mg/kg and an LAD trachea of 10.0 mg/kg. In data set [2], this compound had an LAD urinary bladder of 10.0 mg/kg.
In the case of `Cc1cc(C)cc(COC(CN2CCN(C3CCN(C(=O)c4cc(C(F)(F)F)cc(C(F)(F)F)c4)C(Cc4ccccc4)C3)CC2)c2ccccc2)c1` (racemic) [Compound 87], half-maximal inhibition in data set [1] (IC50) required 1.9 nM. In data set [2], this compound returned an LAD nose of 10.0 mg/kg, an LAD conjunctiva of 10.0 mg/kg, an LAD forepaws of 10.0 mg/kg and an LAD trachea of 10.0 mg/kg. Besides, in data set [2], the LAD urinary bladder is above 40 mg/kg.

The term IC50 denotes the midpoint of a concentration-inhibition curve. Higher therefore signals weaker potency. As usually defined, the melting point is the temperature of the solid-liquid transition.
